Data: US9079870B2, “Thiol mediated/activated prodrugs of sulfur dioxide (SO2) having anti-bacterial activity” (priority 2012, dated 2015)
Values after ≈ are worked out from the molar mass of the structure shown. Values joined by “and” are separate entries in the source; they are usually repeats but may differ in a detail not shown here. Equal values may be shown once. Read-outs that look alike come from different tables or passages of the source.

Experiments:
[1] = Cysteine-activated sulfur dioxide release, ion chromatography analysis of sulfite; conditions: for % SO2 (30 min): 30 min after commencement of the reaction with thiol, per mole of compound; for SO2 yield, 5 min: 5 min after treatment of compound (100 1M) with 10 equiv of cysteine in pH 7.4 phosphate buffer; for SO2 yield in 30 min (%): 30 min after commencement of the reaction with cysteine (10 equiv); for SO2 yield in 30 min (%) / Max SO2 yield: pH 7.4; for K (min−1), rate of sulfite release: compound (100 μM), cysteine (10 equiv), pH 7.4 phosphate buffer (20 mM); for Max SO2 yield: sum of sulfite and sulfate, compound 100 μM, cysteine 10 equiv
[2] = 100 µM, pH 7.4
[3] = Table 4; values are for the amine without a DNs group; cited from earlier work
[4] = test system: Mycobacterium tuberculosis H37Rv strain; assay: Antimycobacterial activity assay (MIC, 7H11 agar); type: cell-based; conditions: Mtb H37Rv
[5] = Pararosaniline-based colorimetric assay for sulfur dioxide; type: physicochemical; conditions: detected with pararosaniline-based colorimetric assay; 10 equiv cysteine, pH 7.4
E. feacalis ATCC 29212 = assay: Antibacterial activity (MIC) against E. feacalis; type: cell-based
Excerpt: (§1) The antibacterial activity of thiol mediated/activated prodrugs of SO2 i.e. 2,4-dinitrophenylsulfonamide related compounds against the gram positive pathogenic bacteria selected from the group S. aureus, E. feacalis is given herein below Table 2a.

[6] = Kinetics of thiol-mediated decomposition of compound (7), HPLC and ion chromatography; type: physicochemical; conditions: curve fitting, FIG. 3
Method: FIG. 3 depicts kinetics of decomposition of compound (7) to produce sulfur dioxide and 2-hydroxyethylthio-2,4-dinitrobenzene (7y), where disappearance of compound (7) and appearance of (7y) was followed by HPLC analysis. Production of sulfite was monitored by ion chromatography analysis. Curve fitting afforded first order rate constant for: appearance of (7y) as 0.011 min^−1; and appearance of sulfite as 0.014 min^−1.
Alternatively, a detailed kinetic analysis of thiol-mediated decomposition and sulfite generation from compound (7) is represented in FIG. 1b, wherein compound (7) decomposed to simultaneously produce sulfur dioxide, and by-products like 4-methoxyaniline (7x) and 2-hydroxyethylthio-2,4-dinitrobenzene (7y). Further the rate determining step in the said mechanism was the step of protonation (either through proton transfer or addition of proton).

S. aureus ATCC 29213 = assay: Antibacterial activity (MIC) against S. aureus; type: cell-based
Excerpt: as §1

[7] = test system: human embryonic kidney 293 cells (HEK); assay: Cell viability assay
[8] = Mycobacterium tuberculosis, H37RV, 672 h, Table 3, inhibit 99% of bacterial growth
[9] = Mycobacterium tuberculosis, H37RV, Table 2b
[10] = Mycobacterium tuberculosis, H37RV, Table 2b, inhibit 99% of bacterial growth
[11] = Mycobacterium tuberculosis, H37RV, Table 3
[12] = Mycobacterium tuberculosis, H37RV, Table 3, inhibit 99% of bacterial growth
[13] = 30 min after treatment of compound (100 1M) with 10 equiv of cysteine in pH 7.4 phosphate buffer
[14] = Table 3, 30 min after treatment of compound (100 μM) with 10 equiv of cysteine in pH 7.4 phosphate buffer
[15] = Enterococcus faecalis, ATCC29212; read-out: MIC (μg/mL) E. feacalis ATCC 29212
[16] = Staphylococcus aureus, ATCC29213; read-out: MIC (μg/mL) S. aureus ATCC 29213
[17] = Mycobacterium tuberculosis, H37RV, 672 h, Table 3, inhibit 99% of bacterial growth, read-out: MIC

| SMILES | melting point | % SO2 (30 min) [1] | t1/2 (min) of SO2 generation ([2]; buffer) | pKaH [3] | MIC [4, 8] | MIC [4, 9] | MIC [4, 10] | MIC [4, 11] | MIC [4, 12] | SO2 source [5] | SO2 yield, 5 min [1] | SO2 yield, 30 min [1, 13] | SO2 yield, 30 min [1, 14] | K (min−1), rate of sulfite release [1] | Max SO2 yield [1] | other results |
| --- | --- | --- | --- | --- | --- | --- | --- | --- | --- | --- | --- | --- | --- | --- | --- | --- |
| COc1ccc(N(CCCN(Cc2ccccc2)S(=O)(=O)c2ccc([N+](=O)[O-])cc2[N+](=O)[O-])S(=O)(=O)c2ccc([N+](=O)[O-])cc2[N+](=O)[O-])cc1 [Compound 37, N-benzyl-N-(3-(N-(4-methoxyphenyl)-2,4-dinitrophenylsulfonamido)propyl)-2,4-dinitrobenzenesulfonamide] | 118 to 120 °C | 183% |  |  |  |  |  |  |  |  |  |  |  |  |  |  |
| O=[N+]([O-])c1ccc(S(=O)(=O)Nc2ccccc2)c([N+](=O)[O-])c1 [Compound 6, N-phenyl, 2,4-dinitrophenylsulfonamide] |  |  | 25 min | 4.64 | ≤ 25 µg/mL | 9.69 µM | 3.13 µg/mL | 9.7 µM | 3.13 µg/mL | yes | 37 µM | 55 µM | 55 µM | 0.0273 min⁻¹ | 94 µM | SO2 yield in 30 min (%) [1]: 55% |
| O=[N+]([O-])c1ccc(S(=O)(=O)N(CCCN(Cc2ccccc2)S(=O)(=O)c2ccc([N+](=O)[O-])cc2[N+](=O)[O-])Cc2ccccc2)c([N+](=O)[O-])c1 [Compound 34, N,N′-(propane-1,3-diyl)bis(N-benzyl-2,4-dinitrobenzenesulfonamide)] | 186 to 189 °C | 152% |  |  |  |  |  |  |  |  |  |  |  |  |  |  |
| COc1ccc(NS(=O)(=O)c2ccc([N+](=O)[O-])cc2[N+](=O)[O-])cc1 [Compound 7, N-(4-methoxyphenyl) 2,4-dinitrophenylsulfonamide] |  |  | 12 min | 5.29 | ≤ 25 µg/mL | 4.4 µM | 1.56 µg/mL | 4.4 µM | 1.56 µg/mL | yes | 39 µM | 80 µM | 79.5 µM | 0.0575 min⁻¹ | 97 µM | MIC (E. feacalis ATCC 29212; [15]): > 16 µg/mL; first order rate constant for appearance of (7y) ([6]; HPLC analysis): 0.011 min⁻¹; first order rate constant for appearance of sulfite ([6]; ion chromatography analysis): 0.014 min⁻¹; MIC (S. aureus ATCC 29213; [16]): > 16 µg/mL |
| O=[N+]([O-])c1ccc(S(=O)(=O)N(CCCN(c2ccccc2F)S(=O)(=O)c2ccc([N+](=O)[O-])cc2[N+](=O)[O-])Cc2ccccc2)c([N+](=O)[O-])c1 [Compound 39, N-benzyl-N-(3-(N-(2-fluorophenyl)-2,4-dinitrophenylsulfonamido)propyl)-2,4-dinitrobenzenesulfonamide] | 151 to 153 °C | 141% |  |  |  |  |  |  |  |  |  |  |  |  |  |  |
| O=[N+]([O-])c1ccc(S(=O)(=O)NCc2ccccc2)c([N+](=O)[O-])c1 [Compound 1, N-benzyl-2,4-dinitrophenylsulfonamide] |  |  | ~2 g·min | 9.34 | ≤ 25 µg/mL | 0.15 µM | ~0.05 µg/mL | 0.15 µM | 0.05 µg/mL | yes | 83 µM | 100 µM | 100 µM |  | 100 µM | MIC (E. feacalis ATCC 29212; [15]): > 16 µg/mL; t1/2 (min) of SO2 generation [2]: ~2 min; MIC (S. aureus ATCC 29213; [16]): > 16 µg/mL; IC50 ([7]; Homo sapiens, HEK293, read-out: IC50, cell viability): 7 µM; selectivity (SI) toward Mtb over human embryonic kidney cells ([7]; based on the MIC and IC50): ~50 and 47; SO2 yield in 30 min (%) [1]: ~100% |
| CCCN(Cc1ccccc1)S(=O)(=O)c1ccc([N+](=O)[O-])cc1[N+](=O)[O-] [Compound 16, (N-benzyl, N-propyl) 2,4-dinitrophenylsulfonamide] |  |  |  | 9.68 |  |  |  |  |  | yes | 68 µM | 96 µM | 96 µM | 0.1517 min⁻¹ | 96 µM | MIC ([4]; Table 2b, read-out: MIC): 8.25 µM; MIC ([4]; Table 3, read-out: MIC): 8.25 µM |
| O=[N+]([O-])c1ccc(S(=O)(=O)Nc2cccc(F)c2)c([N+](=O)[O-])c1 [Compound 9, N-(3-fluorophenyl) 2,4-dinitrophenylsulfonamide] |  |  |  | 3.38 |  |  |  |  |  | yes | 5 µM | 24 µM | 24 µM | 0.0106 min⁻¹ | 86 µM | MIC ([4]; Table 2b, read-out: MIC): 73 µM; MIC ([4]; Table 3, read-out: MIC): 73 µM |
| O=[N+]([O-])c1ccc(S(=O)(=O)N(CCCN(c2ccccc2)S(=O)(=O)c2ccc([N+](=O)[O-])cc2[N+](=O)[O-])Cc2ccccc2)c([N+](=O)[O-])c1 [Compound 38, N-benzyl-N-(3-(2,4-dinitro-(N-phenyl)phenylsulfonamido)propyl)-2,4 dinitro benzene sulfonamide] | 151 to 153 °C | 160% |  |  |  |  |  |  |  |  |  |  |  |  |  |  |
| CN(Cc1ccccc1)S(=O)(=O)c1ccc([N+](=O)[O-])cc1[N+](=O)[O-] [Compound 15, (N-benzyl, N-methyl) 2,4-dinitrophenylsulfonamide] |  |  | ~4 g·min | 9.58 | ≤ 25 µg/mL | 1.1 µM | 0.4 µg/mL | 1.1 µM | 0.4 µg/mL | yes | 79 µM | 100 µM | 100 µM |  | 100 µM | MIC (E. feacalis ATCC 29212; [15]): > 16 µg/mL; t1/2 (min) of SO2 generation [2]: 4 min; MIC (S. aureus ATCC 29213; [16]): 8 µg/mL (≈ 22.8 µM); MIC ([4]; Mycobacterium tuberculosis, H37RV, text to Table 2b): < 1000 µg/mL |
| O=[N+]([O-])c1ccc(S(=O)(=O)N2CCCCC2)c([N+](=O)[O-])c1 [Compound 24, 1-[(2,4-dinitrophenyl)sulfonyl]piperidine] | 138 °C |  |  |  |  |  |  | 2.5 µM | 0.78 µg/mL | yes |  |  | 91 µM |  |  | MIC (E. feacalis ATCC 29212; Enterococcus faecalis, ATCC29212, read-out: MIC (μg/mL) E. feacalis ATCC 29212): > 16 µg/mL; MIC (S. aureus ATCC 29213; Staphylococcus aureus, ATCC29213, read-out: MIC (μg/mL) S. aureus ATCC 29213): 4 µg/mL (≈ 12.7 µM); MIC [4, 17]: ≤ 25 µg/mL |
| COc1cccc(N(CCCN(Cc2ccccc2)S(=O)(=O)c2ccc([N+](=O)[O-])cc2[N+](=O)[O-])S(=O)(=O)c2ccc([N+](=O)[O-])cc2[N+](=O)[O-])c1 [Compound 36, N-benzyl-N-(3-(N-(3-methoxyphenyl)-2,4-dinitrophenylsulfonamido)propyl)-2,4-dinitrobenzenesulfonamide] | 108 to 110 °C | 184% |  |  |  |  |  |  |  |  |  |  |  |  |  |  |
| O=[N+]([O-])c1ccc(S(=O)(=O)N2CCOCC2)c([N+](=O)[O-])c1 [Compound 23, 4-[(2,4-dinitrophenyl)sulfonyl]morpholine] | 144 to 145 °C |  |  |  |  |  |  | 19.6 µM | 6.25 µg/mL | yes |  |  | 96 µM |  |  | MIC [4, 17]: ≤ 25 µg/mL |
